Results: BindingDB's records for patent US8933095 (Pfizer, 2015)

Target: Kynurenine/alpha-aminoadipate aminotransferase, mitochondrial (Homo sapiens, UniProt Q8N5Z0)
Experiment: Inhibition Spectra Assay
Details: 37 °C
Protocol: Formation of kynurenic acid (KYNA) is indirectly assessed by a decrease in light absorbance at 370 nm (OD370) as the L-kynurenine (KYN) substrate is converted by the human KAT II (hKAT II) enzyme into KYNA. An inhibitor would therefore inhibit the decrease in OD370.The protocol was performed by placing the following reagents into a Costar 384 well black plate (30 uL total assay volume/well): 10 uL of 3x concentrated compound; 10 uL of 3x concentrated substrate mix (BGG (Sigma G-5009); 3 mM L-Kynurenine in 150 mM Tris Acetate (Sigma K3750); 3 mM alpha-ketoglutaric acid in 150 mM Tris Acetate (Sigma K2010); and 210 uM pyridoxal 5-phosphate (PLP) in 150 mM Tris Acetate (Sigma 9255)); and 10 uL of 3x concentrated enzyme (15 nM enzyme in 150 mM Tris Acetate with 0.3% bovine serum).Plates were sealed and incubated at 37 C. for 15-20 h before reading OD370 on a SpectraMax Plus plate reader.

Sequence of Kynurenine/alpha-aminoadipate aminotransferase, mitochondrial (Q8N5Z0 whole entry): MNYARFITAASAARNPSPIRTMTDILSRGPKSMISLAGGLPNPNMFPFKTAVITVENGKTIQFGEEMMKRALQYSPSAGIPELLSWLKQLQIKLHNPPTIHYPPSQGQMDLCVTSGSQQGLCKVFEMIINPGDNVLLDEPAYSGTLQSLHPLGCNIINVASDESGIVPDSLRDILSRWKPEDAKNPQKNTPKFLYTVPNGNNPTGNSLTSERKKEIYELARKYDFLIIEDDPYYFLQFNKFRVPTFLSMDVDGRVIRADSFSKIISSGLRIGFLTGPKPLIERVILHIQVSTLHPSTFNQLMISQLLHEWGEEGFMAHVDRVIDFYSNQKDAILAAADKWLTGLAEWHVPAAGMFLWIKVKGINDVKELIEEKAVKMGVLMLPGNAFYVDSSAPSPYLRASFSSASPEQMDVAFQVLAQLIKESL

IC50: 63.7 nM
Structure (SMILES): Cn1nc2c(c1Cc1ccccc1)C[C@@H](N)C(=O)N2O [US8933095, 2]
